Laboratory results reported in patent publication US8815535B2, “Disk diffusion assay for oritavancin” (The Medicines Company, priority 2011, dated 2014).
Values after ≈ are worked out from the molar mass of the structure shown.

Columns and labels:
[1] = tested on: MRSA Q670505; experiment: Broth microdilution (BMD) MIC; assay type: cell-based; details: Staphylococcus aureus, read-out: Oritavancin BMD MIC
From the text: (§1) To date, only the broth microdilution (BMD) minimal inhibitory concentration (MIC) test is a reference method accepted by the Clinical Laboratory Standards Institute (CLSI) for use in determining the susceptibility of a bacterial isolate to oritavancin (Methods for Dilution Antimicrobial Susceptibility Tests for Bacteria That Grow Aerobically; Approved Standard, CLSI document M7-A8, 8th ed. Clinical and Laboratory Standards Institute, Wayne, Pa. 2009; Performance Standards for Antimicrobial Susceptibility Testing; Eighteenth Informational Supplement, CLSI document M100-S18, 7th ed. Clinical and Laboratory Standards Institute, Wayne, Pa. 2008).

[2] = tested on: MRSA T998528; experiment: Broth microdilution (BMD) MIC; assay type: cell-based; details: Staphylococcus aureus, read-out: Oritavancin BMD MIC
From the text: as §1

[3] = tested on: MRSA ATCC 33591; experiment: Broth microdilution (BMD) MIC; assay type: cell-based; details: Staphylococcus aureus, read-out: Oritavancin BMD MIC
From the text: as §1

[4] = tested on: MSSA T811355; experiment: Broth microdilution (BMD) MIC; assay type: cell-based; details: Staphylococcus aureus, read-out: Oritavancin BMD MIC
From the text: as §1

[5] = tested on: MRSA T998608; experiment: Broth microdilution (BMD) MIC; assay type: cell-based; details: Staphylococcus aureus, read-out: Oritavancin BMD MIC
From the text: as §1

[6] = tested on: hVISA NRS36; experiment: Broth microdilution (BMD) MIC; assay type: cell-based; details: Staphylococcus aureus, read-out: Oritavancin BMD MIC
From the text: as §1

[7] = tested on: MSSA U933236; experiment: Broth microdilution (BMD) MIC; assay type: cell-based; details: Staphylococcus aureus, read-out: Oritavancin BMD MIC
From the text: as §1

[8] = tested on: MRSA V288615; experiment: Broth microdilution (BMD) MIC; assay type: cell-based; details: Staphylococcus aureus, read-out: Oritavancin BMD MIC
From the text: as §1

[9] = tested on: MRSA NRS123; experiment: Broth microdilution (BMD) MIC; assay type: cell-based; details: Staphylococcus aureus, read-out: Oritavancin BMD MIC
From the text: as §1

[10] = tested on: MSSA Q141066; experiment: Broth microdilution (BMD) MIC; assay type: cell-based; details: Staphylococcus aureus, read-out: Oritavancin BMD MIC
From the text: as §1

[11] = tested on: MRSA NRS121; experiment: Broth microdilution (BMD) MIC; assay type: cell-based; details: Staphylococcus aureus, read-out: Oritavancin BMD MIC
From the text: as §1

[12] = tested on: VISA NRS3; experiment: Broth microdilution (BMD) MIC; assay type: cell-based; details: Staphylococcus aureus, read-out: Oritavancin BMD MIC
From the text: as §1

[13] = tested on: MSSA U148267; experiment: Broth microdilution (BMD) MIC; assay type: cell-based; details: Staphylococcus aureus, read-out: Oritavancin BMD MIC
From the text: as §1

[14] = tested on: MSSA T759545; experiment: Broth microdilution (BMD) MIC; assay type: cell-based; details: Staphylococcus aureus, read-out: Oritavancin BMD MIC
From the text: as §1

[15] = tested on: MRSA Q141067; experiment: Broth microdilution (BMD) MIC; assay type: cell-based; details: Staphylococcus aureus, read-out: Oritavancin BMD MIC
From the text: as §1

[16] = tested on: MSSA ATCC 29213; experiment: Broth microdilution (BMD) MIC; assay type: cell-based; details: Staphylococcus aureus, read-out: Oritavancin BMD MIC
From the text: as §1

[17] = tested on: MRSA NRS123-ORI^RS; experiment: Broth microdilution (BMD) MIC; assay type: cell-based; details: Staphylococcus aureus; MRSA NRS123-ORI^RS (oritavancin reduced-susceptibility isolate)
From the text: as §1

[18] = tested on: MSSA T972018; experiment: Broth microdilution (BMD) MIC; assay type: cell-based; details: Staphylococcus aureus, read-out: Oritavancin BMD MIC
From the text: as §1

[19] = tested on: MRSA U784439; experiment: Broth microdilution (BMD) MIC; assay type: cell-based; details: Staphylococcus aureus, read-out: Oritavancin BMD MIC
From the text: as §1

[20] = tested on: MRSA Q670607; experiment: Broth microdilution (BMD) MIC; assay type: cell-based; details: Staphylococcus aureus, read-out: Oritavancin BMD MIC
From the text: as §1

[21] = tested on: MSSA V406985; experiment: Broth microdilution (BMD) MIC; assay type: cell-based; details: Staphylococcus aureus, read-out: Oritavancin BMD MIC
From the text: as §1

[22] = tested on: MSSA U781969; experiment: Broth microdilution (BMD) MIC; assay type: cell-based; details: Staphylococcus aureus, read-out: Oritavancin BMD MIC
From the text: as §1

[23] = tested on: MRSA U260847; experiment: Broth microdilution (BMD) MIC; assay type: cell-based; details: Staphylococcus aureus, read-out: Oritavancin BMD MIC
From the text: as §1

[24] = tested on: hVISA NRS2; experiment: Broth microdilution (BMD) MIC; assay type: cell-based; details: Staphylococcus aureus, read-out: Oritavancin BMD MIC
From the text: as §1

[25] = tested on: VISA NRS402; experiment: Broth microdilution (BMD) MIC; assay type: cell-based; details: Staphylococcus aureus, read-out: Oritavancin BMD MIC
From the text: as §1

[26] = tested on: MSSA S815246; experiment: Broth microdilution (BMD) MIC; assay type: cell-based; details: Staphylococcus aureus, read-out: Oritavancin BMD MIC
From the text: as §1

[27] = tested on: MSSA S815247; experiment: Broth microdilution (BMD) MIC; assay type: cell-based; details: Staphylococcus aureus, read-out: Oritavancin BMD MIC
From the text: as §1

[28] = tested on: VISA Mu50 (ATCC 700699); experiment: Broth microdilution (BMD) MIC; assay type: cell-based; details: Staphylococcus aureus; VISA ATCC 700699 (Mu50); read-out: Oritavancin BMD MIC
From the text: as §1

[29] = tested on: MRSA U933237; experiment: Broth microdilution (BMD) MIC; assay type: cell-based; details: Staphylococcus aureus, read-out: Oritavancin BMD MIC
From the text: as §1

[30] = tested on: MRSA V257345; experiment: Broth microdilution (BMD) MIC; assay type: cell-based; details: Staphylococcus aureus, read-out: Oritavancin BMD MIC
From the text: as §1

[31] = tested on: MRSA V406957; experiment: Broth microdilution (BMD) MIC; assay type: cell-based; details: Staphylococcus aureus, read-out: Oritavancin BMD MIC
From the text: as §1

[32] = tested on: MRSA NRS121-ORI^RS; experiment: Broth microdilution (BMD) MIC; assay type: cell-based; details: Staphylococcus aureus; MRSA NRS121-ORI^RS (oritavancin reduced-susceptibility isolate)
From the text: as §1

[33] = tested on: MRSA U206056; experiment: Broth microdilution (BMD) MIC; assay type: cell-based; details: Staphylococcus aureus, read-out: Oritavancin BMD MIC
From the text: as §1

[34] = tested on: MRSA Q670607; experiment: Disk diffusion assay (zone of inhibition); assay type: cell-based, Staphylococcus aureus; details: 20 μl of 1.25 mg/ml in 4% P80/Span 80 (1:1), calcium alginate swabs, dried overnight, duplicate
Experimental: (§2) Oritavancin powder was dissolved in freshly-prepared solutions of the indicated excipients at concentrations of 0.625, 1.25, 2.5, 5, and 10 mg/ml (adjusted for potency based on lot 875561L00 purity of 83.1%) by vortexing for a minimum of 5 minutes. Oritavancin solutions in the various excipients, while not visually clear, were free from any apparent particulates as assessed visually. Sterile Oxoid blank disks were impregnated with 20 μl of these oritavancin solutions, resulting in oritavancin disk loads ranging from 12.5 to 200 μg. Unless indicated otherwise, disks were allowed to dry overnight at room temperature prior to use.
(§3) Bacterial suspensions from isolated colonies on overnight cation-adjusted Mueller Hinton agar plates were prepared in sterile saline and adjusted to an optical density of 0.1 at 600 nm Standard cation-adjusted Mueller Hinton agar plates (90 mm diameter) were seeded with bacterial suspensions by initially swabbing the center of plate then moving outward. Swabbing was continued at a right angle and then at an oblique angle to the first and second swabs. Disks were placed upon the seeded plates with sterile forceps. Plates were then incubated overnight at 37° C. and inhibition zone diameters were measured with a ruler and reported in millimeters.

[35] = tested on: MSSA S815246; experiment: Disk diffusion assay (zone of inhibition); assay type: cell-based, Staphylococcus aureus; details: 20 μl of 1.25 mg/ml in 4% P80/Span 80 (1:1), calcium alginate swabs, dried overnight, duplicate
Experimental: as §2, §3

[36] = tested on: MRSA V257345; experiment: Disk diffusion assay (zone of inhibition); assay type: cell-based, Staphylococcus aureus; details: 20 μl of 1.25 mg/ml in 4% P80/Span 80 (1:1), calcium alginate swabs, dried overnight, duplicate
Experimental: as §2, §3

[37] = Staphylococcus aureus, MRSA, read-out: Inhibition zone diameter

In the case of `CN[C@H](CC(C)C)C(=O)N[C@H]1C(=O)N[C@@H](CC(N)=O)C(=O)N[C@H]2C(=O)N[C@H]3C(=O)N[C@H](C(=O)N[C@H](C(=O)O)c4cc(O)cc(O)c4-c4cc3ccc4O)[C@H](O[C@H]3C[C@](C)(N)[C@@H](O)[C@H](C)O3)c3ccc(c(Cl)c3)Oc3cc2cc(c3O[C@@H]2O[C@H](CO)[C@@H](O)[C@H](O)[C@H]2O[C@H]2C[C@](C)(NCc3ccc(-c4ccc(Cl)cc4)cc3)[C@@H](O)[C@H](C)O2)Oc2ccc(cc2Cl)[C@H]1O` [oritavancin, N-(4-(4-chlorophenyl)benzyl)A82846B], the MIC [1] is reported as 0.25 µg/mL (≈ 0.139 µM), the MIC [2] is reported as 0.015 µg/mL (≈ 0.00837 µM) and the MIC [3] is reported as 0.06 µg/mL (≈ 0.0335 µM). It also gave an MIC [4] of 0.03 µg/mL (≈ 0.0167 µM), an MIC [5] of 0.03 µg/mL (≈ 0.0167 µM) and an MIC [6] of 1 µg/mL (≈ 0.558 µM). It also gave an MIC [7] of 0.06 µg/mL (≈ 0.0335 µM), an MIC [8] of 0.03 µg/mL (≈ 0.0167 µM) and an MIC [9] of 0.03 µg/mL (≈ 0.0167 µM). For the same compound, the MIC [10] was 0.03 µg/mL (≈ 0.0167 µM), the MIC [11] was 0.06 µg/mL (≈ 0.0335 µM) and the MIC [12] was 1 µg/mL (≈ 0.558 µM). It also gave an MIC [13] of 0.015 µg/mL (≈ 0.00837 µM), an MIC [14] of 0.015 µg/mL (≈ 0.00837 µM) and an MIC [15] of 0.015 µg/mL (≈ 0.00837 µM). The MIC [16] was 0.06 µg/mL (≈ 0.0335 µM), the MIC [17] was 0.25 µg/mL (≈ 0.139 µM) and the MIC [18] was 0.5 µg/mL (≈ 0.279 µM). For the same compound, the MIC [19] was 0.03 µg/mL (≈ 0.0167 µM), the MIC [20] was 0.03 µg/mL (≈ 0.0167 µM) and the MIC [21] was 0.12 µg/mL (≈ 0.0669 µM). For the same compound, the MIC [22] was 0.03 µg/mL (≈ 0.0167 µM), the MIC [23] was 0.06 µg/mL (≈ 0.0335 µM) and the MIC [24] was 0.25 µg/mL (≈ 0.139 µM). The MIC [25] was 1 µg/mL (≈ 0.558 µM), the MIC [26] was 0.03 µg/mL (≈ 0.0167 µM) and the MIC [27] was 0.015 µg/mL (≈ 0.00837 µM). For the same compound, the MIC [28] was 1 µg/mL (≈ 0.558 µM), the MIC [29] was 0.12 µg/mL (≈ 0.0669 µM) and the MIC [30] was 0.12 µg/mL (≈ 0.0669 µM). The MIC [31] was 0.12 µg/mL (≈ 0.0669 µM), the MIC [32] was 0.5 µg/mL (≈ 0.279 µM) and the MIC [33] was 0.25 µg/mL (≈ 0.139 µM). For the same compound, the Inhibition zone diameter [34] was 22 mm, the zone of inhibition at 1250 µg/mL [34, 37] was 21 mm and the Inhibition zone diameter [35] was 22 mm. The zone of inhibition at 1250 µg/mL ([35]; Staphylococcus aureus, MSSA, read-out: Inhibition zone diameter) was 21 mm, the Inhibition zone diameter [36] was 22 mm and the zone of inhibition at 1250 µg/mL [36, 37] was 21 mm.
